Measured values reported in ChEMBL document CHEMBL1140452, “5'-halogenated analogs of oxymorphindole” (Bioorg Med Chem Lett, 2007).
Active and inactive are the calls of the source. The rule behind the calls is not given here.

Assays:
Mus musculus [1] = assay: Antinociceptive effect in mouse at 30 mg/kg by tail flick assay; assay type: functional, organism-based; parameters: dose 30 mg/kg
Mus musculus [2] = assay: Antinociceptive effect in mouse at 30 mg/kg by antiwrithing assay; assay type: functional, organism-based; parameters: dose 30 mg/kg
Mus musculus [3] = assay: Antinociceptive effect in mouse at 30 mg/kg by hot plate assay; assay type: functional, organism-based; parameters: dose 30 mg/kg
[4] = target: T1, Delta-type opioid receptor (Homo sapiens, UniProt P41143); assay: Displacement of [3H]p-Cl-DPDPE from delta opioid receptor
Mus musculus [5] = assay: Antinociceptive effect in mouse at 30 mg/kg by […]; assay type: functional, organism-based; parameters: dose 30 mg/kg
Mu-type opioid receptor [6] = target: T2, Mu-type opioid receptor (Homo sapiens, UniProt P35372); assay: Displacement of [3H]DAMGO from mu opioid receptor
Homo sapiens = species: Homo sapiens; assay: Selectivity for delta opioid receptor over mu opioid receptor
[7] = target: Kappa-type opioid receptor (Homo sapiens, UniProt P41145); assay: Displacement of [3H]U-69593 from cloned kappa opioid receptor
Mu-type opioid receptor [8] = target: T2, Mu-type opioid receptor; assay: Activity at mu opioid receptor assessed as stimulation of [35S]GTP-gamma-S binding; assay type: functional
[9] = target: T1, Delta-type opioid receptor; assay: Activity at delta opioid receptor assessed as stimulation of [35S]GTP-gamma-S binding

T1 sequence (P41143 whole entry): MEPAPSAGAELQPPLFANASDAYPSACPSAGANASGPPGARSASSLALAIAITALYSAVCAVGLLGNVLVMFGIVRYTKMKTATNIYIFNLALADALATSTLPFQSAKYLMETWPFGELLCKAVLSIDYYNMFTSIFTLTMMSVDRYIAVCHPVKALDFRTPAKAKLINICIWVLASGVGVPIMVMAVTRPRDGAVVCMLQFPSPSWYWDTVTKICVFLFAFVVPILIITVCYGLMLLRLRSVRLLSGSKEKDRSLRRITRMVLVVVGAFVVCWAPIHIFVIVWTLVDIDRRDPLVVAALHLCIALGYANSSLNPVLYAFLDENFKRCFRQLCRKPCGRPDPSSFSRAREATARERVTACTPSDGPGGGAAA
Chain of Kappa-type opioid receptor (P41145 whole entry): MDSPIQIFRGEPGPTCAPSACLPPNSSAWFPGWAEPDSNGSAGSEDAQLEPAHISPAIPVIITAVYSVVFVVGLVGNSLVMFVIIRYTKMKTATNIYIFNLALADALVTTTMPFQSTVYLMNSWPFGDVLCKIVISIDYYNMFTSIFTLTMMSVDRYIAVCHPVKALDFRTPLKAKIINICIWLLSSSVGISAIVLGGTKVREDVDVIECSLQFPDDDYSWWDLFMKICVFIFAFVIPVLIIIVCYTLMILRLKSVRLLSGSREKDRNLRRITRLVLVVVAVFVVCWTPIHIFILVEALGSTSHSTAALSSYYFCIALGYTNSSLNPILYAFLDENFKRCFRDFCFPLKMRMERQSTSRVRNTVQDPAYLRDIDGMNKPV
T2 sequence (P35372 whole entry): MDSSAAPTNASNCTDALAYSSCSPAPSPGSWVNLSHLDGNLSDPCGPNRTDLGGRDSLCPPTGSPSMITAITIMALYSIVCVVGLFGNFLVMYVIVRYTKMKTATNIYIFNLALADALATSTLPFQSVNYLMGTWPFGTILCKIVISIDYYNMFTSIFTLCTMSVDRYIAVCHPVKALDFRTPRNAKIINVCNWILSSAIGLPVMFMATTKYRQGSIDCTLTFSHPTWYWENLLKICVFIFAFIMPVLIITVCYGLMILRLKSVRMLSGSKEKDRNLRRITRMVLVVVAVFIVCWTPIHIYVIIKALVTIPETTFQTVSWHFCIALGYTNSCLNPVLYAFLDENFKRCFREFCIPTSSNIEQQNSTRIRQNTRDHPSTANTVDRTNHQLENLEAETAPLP

Structure (SMILES)	Activity (Mus musculus [1])	Activity (Mus musculus [2])	Activity (Mus musculus [3])	Ki [4] [nM]	Activity (Mus musculus [5])	Ki (Mu-type opioid receptor [6]) [nM]	Ratio Ki (Homo sapiens)	Ki [7] [nM]	Activity (Mu-type opioid receptor [8]) [%]	EC50 (Mu-type opioid receptor [8]) [nM]	EC50 [9] [nM]
CN1CC[C@]23c4c5ccc(O)c4O[C@H]2c2[nH]c4ccccc4c2C[C@@]3(O)[C@H]1C5 [OXYMORPHINDOLE]	inactive	inactive	inactive	0.9	inactive	105	115				
CN1CC[C@]23c4c5ccc(O)c4O[C@H]2c2[nH]c4ccc(Cl)cc4c2C[C@@]3(O)[C@H]1C5	inactive	inactive	inactive	5.1	inactive	47	9	360			
CN1CC[C@]23c4c5ccc(O)c4O[C@H]2c2[nH]c4ccc(I)cc4c2C[C@@]3(O)[C@H]1C5	inactive	inactive	inactive	3.8	inactive	66	17	160			
CN1CC[C@]23c4c5ccc(O)c4O[C@H]2c2[nH]c4ccc(F)cc4c2C[C@@]3(O)[C@H]1C5	inactive	inactive	inactive	2.3	inactive	21	9	310	34	1080	16
CN1CC[C@]23c4c5ccc(O)c4O[C@H]2c2[nH]c4ccc(Br)cc4c2C[C@@]3(O)[C@H]1C5	inactive	inactive	inactive	8.6	inactive	71	8	250			
